Experimental data: patent US20220235005A1, “FUNGICIDAL N-(PYRID-3-YL)CARBOXAMIDES” (BASF SE, priority 2019, published 2022)

SMILES: Cc1cc(NC(=O)/C(=N/OCC(C)C)c2ccccc2)cnc1C [Ex-8, (2E)-N-(5,6-dimethyl-3-pyridyl)-2-isobutoxyimino-2-phenyl-acetamide]
- melting point: 169 °C
